Laboratory results from patent publication US20090131441A1, “Metabolites Of 2-Arylpropionic Acid Derivatives And Pharmaceutical Compositions Containing Them” (DOMPE phar.r.ma S.p.A., priority 2005, published 2009).

Key:
[1] = T1/2 after single bolus i.v. administration in rat; conditions: in vivo, iv; after single bolus i.v. administration in rat (15 mg/Kg); read-out: T½ (converted)
Text: Furthermore, the compounds of formula (I) have a pharmacokinetic profile particularly advantageous for the therapeutic use. In fact, as compared to the compounds of formula (III), the compounds of the invention, administered “in vivo” by the i.v. route, show a longer T1/2 associated to a reduced clearance time.
(§1) Table I and II show, as an example, the significant differences in T1/2 and protein binding (%) between metabolites of formula (I) and corresponding parent compounds of formula (III).

[2] = in vitro binding to rat plasma proteins; assay type: in vitro ADME; conditions: compound concentration 10 μg/mL, read-out: Protein Binding (converted)
Text: as §1

[3] = system: IL-8 induced chemotaxis of human PMNs; test: IL-8 induced PMN chemotaxis assay; assay type: cell-based; conditions: read-out: inhibition of IL-8-induced PMN migration
Procedure: The compounds of the invention of formula (I) were evaluated in vitro for their ability to inhibit chemotaxis of polymorphonucleate leukocytes (hereinafter referred to as PMNs) and monocytes induced by the fractions of IL-8 and GRO-α and C5a and directly compared to the corresponding parent 4-isobutyl compounds of formula (III). For this purpose, in order to isolate the PMNs from heparinized human blood, taken from healthy adult volunteers, mononucleates were removed by means of sedimentation on dextran (according to the procedure disclosed by W. J. Ming et al., J. Immunol., 138, 1469, 1987) and red blood cells by a hypotonic solution. The cell vitality was calculated by exclusion with Trypan blue, whilst the ratio of the circulating polymorphonucleates was estimated on the cytocentrifugate after staining with Diff Quick. […]
The compounds of the invention in formula (I) were evaluated at a concentration ranging between 10^−6 and 10^−10 M; for this purpose they were added, at the same concentration, both to the lower pores and the upper pores of the microchamber. […]

half-life [1] [min]	fraction unbound at 10 μg/mL [2]	SMILES	inhibition at 1 µM ([3]; compound concentration 10^−6M) [%]	inhibition at 0.01 µM ([3]; compound concentration 10^−8M) [%]
60	0.2	CC(C)Cc1ccc([C@@H](C)C(=O)NCCCN2CCCCC2)cc1 [(R)-2-[(4-isobutyl)phenyl]-N-[3″-(N′-piperidino)propyl]propionamide, reference compound]		
30	< 0.01	CC(C)Cc1ccc([C@@H](C)C(=O)NS(C)(=O)=O)cc1 [(R)-2-[(4-isobutyl)phenyl]propionyl methanesulfonamide, reference compound]		
120	0.28	CC(Cc1ccc([C@@H](C)C(=O)NS(C)(=O)=O)cc1)C(=O)O (stereo partly drawn) [Example 1, (2R) (2″ R, S) 2-[4′-(2″-carboxyprop-1-yl)phenyl]propionyl methanesulfonamide]	66 ± 8	49 ± 9
120	0.3	CC(Cc1ccc([C@@H](C)C(=O)NCCCN2CCCCC2)cc1)C(=O)O (stereo partly shown) [Example 4]		
